From patent US20200239587A1, “SENSITIZATION OF TUMORS TO THERAPIES THROUGH ENDOGLIN ANTAGONISM” (Cedars-Sinai Medical Center, priority 2016, published 2020)

Columns and labels:
[1] = tested on: CD105 cell surface expression in human CW22Rv1 epithelia and mouse prostatic fibroblasts; assay: 3D co-culture, CD105 cell surface expression by FACS; format: cell-based; conditions: hypoxia (2% O2), 72 hours; mouse prostatic fibroblasts and human prostate cancer epithelia
Method: After 72 hours, the cells were dissociated and assessed by FACS for CD105 expression as shown.
A modified version of the 3D organotypic co-culture system was performed in a collagen matrix similar to that previously reported (Stark et al., 1999, J Invest Dermatol 112, 681-691). Collagen matrix gels were prepared by mixing five volumes of rat tail collagen I with two volumes of matrigel (NCI), one volume of 10× DMEM medium (GE Healthcare Life Sciences), and one volume of FBS (Atlanta Biologicals), Rv1 and primary mouse prostatic fibroblasts were combined in a 1:3 ratio. Nylon squares were coated with collagen and placed on metal grids in a 6-well plate. Gel plugs (150 μl) were transferred onto the nylon squares and media was added to the level of the nylon mesh. After 72 hours, the cells were dissociated from the matrix with collagenase and dispersed for FACS analysis.
FACS experiments were performed with eBiosciences antibodies: anti-human Stro-1-FITC (340105), anti-human CD90-PE (12-0909-42), anti-human CD105-APC (17-1057-41), anti-mouse CD105-APC (17-1051-82), anti-human CD117-PE-Cy7 (15-1178-41), anti-human Ki67-PECy7 (25-5699-41), and anti-human EpCAM-PE (12-9326-41). All events were acquired on a BD LSRII flow cytometer in the Cedars-Sinai Medical Center FACS core installed with BD FACSDiva software. Files were analyzed using FlowJo software v10.2. […]

[2] = tested on: SFRP1 expression in human NAF and CAF; assay: SFRP1 mRNA expression in NAF and CAF treated with TRC105; format: cell-based; conditions: vs IgG
From the text: See also FIG. 15. […] Immunohistochemical localization of CD105 and SFRP1 in benign or PCa tissues are found in blood vessels (v), epithelia (e), and stroma (s), n=4. Scale bar represents 100 μm. FIG. 12E) Epithelial proliferation of human CW22Rv1, in 3D co-cultures with mouse prostatic fibroblasts, were co-stained for EpCam and Ki67 for FACS analysis. […] See also FIG. 16. […] Error bars are mean+/−SD and **p<0.01, ****p<0.0001, compared to control unless otherwise indicated.
CW22Rv1, C42B, and PC3 cells from ATCC were expanded as directed. Prostatectomy specimens from Cedars-Sinai Medical Center or the Greater Los Angeles Veterans Affairs were cultured to generate NAF and CAF cells using the same method, as C57BL/6 mouse wild-type prostatic fibroblasts were grown as previously reported (Franco et al., 2011, Cancer research 71, 1272-1281; Kiskowski et al., 2011, Cancer research 68, 4709-4718). TRC105 and M1043 were provided by TRACON Pharmaceuticals, Inc. (San Diego, Calif.). […]
Total RNA was extracted using the RNeasy kit (Qiagen). […] Quantitative RT-PCR was performed with 5 replicates using the Step One Real-Time PCR system (Applied Biosystems). […] For RNA-sequencing, Ion Proton AmpliSeq Transcriptome RNA Sequencing was performed achieving an average of 3M reads. We mapped an average of 88% of the reads to the human genome with Torrent Suite version 4.4.2.

[3] = tested on: BMP dependent CD105 signaling in 22Rv1; assay: BMP-stimulated phosphorylated-SMAD1/5 and ID1 expression; format: cell-based, human; conditions: stimulated with 50 ng/mL BMP
Method: FIG. 18A) Cell surface CD105 expression was measured in PC3, C42b, and 22Rv1 72 hours after 4 Gy irradiation treatment by FACS analysis and compared to cells not irradiated (control). FIG. 18B) Cell surface CD105 expression was measured in cell lines following a dose range of irradiation (0, 2, 4, or 6 Gy). FIG. 18C) The durability of cell surface CD105 expression in 22Rv1 was determined 0, 0.5, 4, 8, 24, 48, 72, 120, and 168 hours following 4 Gy irradiation. CD105 cell surface expression fold change was normalized to levels expressed prior to irradiation. FIG. 18D) Western blot for phosphorylated-Smad1/5 was measured in CW22Rv1 cells in the presence or absence of serum starvation and treatment with 50 ng/ml BMP4 or 1 μg/ml TRC105. β-actin expression served as the loading control. FIG. 18E) Annexin-V expression was measured in 22Rv1 cells by FACS analysis 5 days following 4 Gy irradiation in the presence and absence of TRC105. FIG. 18F) Clonogenic assay was measured 10 days following irradiation of CW22Rv1 and C42b cells in a dose range of 0 to 6 Gy in the presence of 1 μg/ml IgG or TRC105. […]
Total RNA was extracted using the RNeasy kit (Qiagen). […] Quantitative RT-PCR was performed with 5 replicates using the Step One Real-Time PCR system (Applied Biosystems). […] For RNA-sequencing, Ion Proton AmpliSeq Transcriptome RNA Sequencing was performed achieving an average of 3M reads. […]

22Rv1 cells = assay: Total cellular ATP; format: cell-based, human; conditions: with or without 4 Gy, 0-168 hours
Method: Cells were analyzed for mito-stress test by Seahorse-XF 168 hours following 4 Gy of radiation in the presence of IgG or TRC105. FIG. 26A) Basal respiration, non-mito respiration, proton leak, spare respiratory capacity, FIG. 26B) extracellular acidification rate (ECAR) and FIG. 26C) mitochondrial dependent ATP production were quantitated using Wave 2.3.0 analysis. Data are reported as mean+/−S.D. of a representative experiment (n=5) of 3 independent experiments. FIGS. 26A-26C, the first/left column depicts 0Gy+IgG, the second column depicts 0Gy+TRC105, the third column depicts 4Gy+IgG and the last/right column depicts 4Gy+TRC105. FIG. 26D) 22Rv1 cells treated with IgG, TRC105 or nicotinamide were irradiated (4 Gy). Total cellular ATP was measured 0, 24, 72, 120, and 168 hours post radiation. Within each group, the left column is IgG, middle column is TRC105 and the right column is nicotinamide. Data are reported as mean+/−S.D. of 3 independent experiments. (***p<0.001, ****p<0.0001).

TRC105: partially humanized monoclonal antibody that blocks BMP signaling; human-specific CD105 (endoglin) neutralizing antibody from Tracon Pharmaceuticals
enzalutamide-induced CD105 cell surface expression [1]: down regulated | SFRP1 expression in NAF [2]: no effect | SFRP1 expression in CAF ([2]; p<0.0001): significantly down regulated | minimum dose that effectively blocked phosphorylated-SMAD1/5 activation and expression of ID1 [3]: 1 µg/mL | cellular ATP stores (22Rv1 cells): depleted regardless of radiation treatment
